Experimental data published in patent US8952024B2, “Herbicidal pyrimidone derivatives” (E I du Pont de Nemours and Company, priority 2009, dated 2015).

Legend:
Format in all cases: in vivo
[1] = tested on: pigweed (Amaranthus retroflexus); experiment: Test A pre-/postemergence plant response; conditions: for Pigweed plant response rating: visual injury, 0 to 100 scale (0 no effect, 100 complete control), approx. ten days
In short: (§1)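 Visually rated 0–100 injury (100 = complete control) versus untreated plants, ~10 days in greenhouse. Application pre- (soil spray, loam/sand) and postemergence (2–10 cm, 1–2 leaf stage), same timepoint.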

[2] = tested on: velvetleaf (Abutilon theophrasti); experiment: Test A pre-/postemergence plant response; conditions: for Velvetleaf plant response rating: visual injury, 0 to 100 scale (0 no effect, 100 complete control), approx. ten days
In short: as §1

[3] = tested on: morningglory (Ipomoea spp.); experiment: Test A pre-/postemergence plant response; conditions: for Morningglory plant response rating: visual injury, 0 to 100 scale (0 no effect, 100 complete control), approx. ten days
In short: as §1

[4] = tested on: wheat (Triticum aestivum); experiment: Test A pre-/postemergence plant response; conditions: for Wheat plant response rating: visual injury, 0 to 100 scale (0 no effect, 100 complete control), approx. ten days
In short: as §1

[5] = tested on: large crabgrass (Digitaria sanguinalis); experiment: Test A pre-/postemergence plant response; conditions: for Crabgrass, Large plant response rating: visual injury, 0 to 100 scale (0 no effect, 100 complete control), approx. ten days
In short: as §1

[6] = tested on: corn (Zea mays); experiment: Test A pre-/postemergence plant response; conditions: for Corn plant response rating: visual injury, 0 to 100 scale (0 no effect, 100 complete control), approx. ten days
In short: as §1

[7] = tested on: giant foxtail (Setaria faberii); experiment: Test A pre-/postemergence plant response; conditions: for Foxtail, Giant plant response rating: visual injury, 0 to 100 scale (0 no effect, 100 complete control), approx. ten days
In short: as §1

[8] = tested on: barnyardgrass (Echinochloa crus-galli); experiment: Test A pre-/postemergence plant response; conditions: for Barnyardgrass plant response rating: visual injury, 0 to 100 scale (0 no effect, 100 complete control), approx. ten days
In short: as §1

[9] = tested on: rice (Oryza sativa); experiment: Test B flooded paddy test; conditions: for Plant response rating, Rice: Flood (flooded paddy test), 13 to 15 days; for Rice plant response rating: Flood, 31 g ai/ha, scale 0 to 100 (0 no effect, 100 complete control)
In short: (§2)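 Rice, umbrella sedge, ducksalad and barnyardgrass were grown to the 2-leaf stage, flooded to 3 cm, and compound was applied directly to the paddy water, with that depth kept throughout. After 13 to 15 days in the greenhouse, plants were visually rated against controls on a 0 (no effect) to 100 (complete control) scale.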

[10] = tested on: ducksalad (Heteranthera limosa); experiment: Test B flooded paddy test; conditions: for Plant response rating, Ducksalad: Flood (flooded paddy test), 13 to 15 days; for Ducksalad plant response rating: Flood, 31 g ai/ha, scale 0 to 100 (0 no effect, 100 complete control)
In short: as §2

[11] = tested on: umbrella sedge (Cyperus difformis); experiment: Test B flooded paddy test; conditions: for Plant response rating, Sedge, Umbrella: Flood (flooded paddy test), 13 to 15 days; for Sedge, Umbrella plant response rating: Flood, 31 g ai/ha, scale 0 to 100 (0 no effect, 100 complete control)
In short: as §2

[12] = tested on: barnyardgrass (Echinochloa crus-galli); experiment: Test B flooded paddy test; conditions: for Plant response rating, Barnyardgrass: Flood (flooded paddy test), 13 to 15 days; for Barnyardgrass plant response rating: Flood, 31 g ai/ha, scale 0 to 100 (0 no effect, 100 complete control)
In short: as §2

[13] = Postemergence, 125 g ai/ha, 0 to 100 scale where 0 is no effect and 100 is complete control
[14] = Preemergence, 125 g ai/ha, 0 to 100 scale, 0 = no effect, 100 = complete control
[15] = Preemergence, 500 g ai/ha, 0 to 100 scale, 0 = no effect, 100 = complete control
[16] = 125 g ai/ha, scale 0 to 100, 0 is no effect, 100 is complete control
[17] = 250 g ai/ha, flooded paddy test, visual rating on 0 to 100 scale (0 no effect, 100 complete control) after 13 to 15 days
[18] = 62 g ai/ha, scale of 0 to 100 where 0 is no effect and 100 is complete control

With `COc1ccc(-n2c(-c3cccc(Br)c3)ncc(C(=O)C3=C(O)CCCC3=O)c2=O)cc1` [Compound 176] the “Plant response rating, Pigweed” value [1, 13] was 100, the “Pigweed plant response rating” value ([1]; Postemergence, 500 g ai/ha) was 100 and the “Plant response rating, Pigweed” value [1, 14] was 60. The “Plant response rating, Pigweed” value [1, 15] was 100, the “Plant response rating, Velvetleaf” value [2, 13] was 80 and the “Velvetleaf plant response rating” value ([2]; Postemergence, 500 g ai/ha) was 90. For the same compound, the “Plant response rating, Velvetleaf” value [2, 14] was 10, the “Plant response rating, Velvetleaf” value [2, 15] was 50 and the “Plant response rating, Morningglory” value [3, 13] was 0. For the same compound, the “Morningglory plant response rating” value ([3]; Postemergence, 500 g ai/ha) was 50, the “Plant response rating, Morningglory” value [3, 14] was 0 and the “Plant response rating, Morningglory” value [3, 15] was 20. The “Plant response rating, Wheat” value [4, 13] was 0, the “Wheat plant response rating” value ([4]; Postemergence, 500 g ai/ha) was 0 and the “Plant response rating, Wheat” value [4, 14] was 0. The “Plant response rating, Wheat” value [4, 15] was 0, the “Plant response rating, Crabgrass, Large” value [5, 13] was 10 and the “Crabgrass, Large plant response rating” value ([5]; Postemergence, 500 g ai/ha) was 60. The “Plant response rating, Crabgrass, Large” value [5, 14] was 0, the “Plant response rating, Crabgrass, Large” value [5, 15] was 20 and the “Plant response rating, Corn” value [6, 13] was 0. For the same compound, the “Corn plant response rating” value ([6]; Postemergence, 500 g ai/ha) was 10, the “Plant response rating, Corn” value [6, 14] was 0 and the “Plant response rating, Corn” value [6, 15] was 0. For the same compound, the “Plant response rating, Foxtail, Giant” value [7, 13] was 10, the “Foxtail, Giant plant response rating” value ([7]; Postemergence, 500 g ai/ha) was 70 and the “Plant response rating, Foxtail, Giant” value [7, 14] was 10. The “Plant response rating, Foxtail, Giant” value [7, 15] was 50, the “Plant response rating, Barnyardgrass” value [8, 13] was 50 and the “Barnyardgrass plant response rating” value ([8]; Postemergence, 500 g ai/ha) was 90. The “Plant response rating, Barnyardgrass” value [8, 14] was 10, the “Plant response rating, Barnyardgrass” value [8, 15] was 30 and the “Plant response rating, Rice” value [9, 16] was 20. The “Rice plant response rating” value [9] was 15, the “Plant response rating, Ducksalad” value [10, 16] was 75 and the “Ducksalad plant response rating” value [10] was 40. The “Plant response rating, Sedge, Umbrella” value [11, 16] was 85, the “Sedge, Umbrella plant response rating” value [11] was 70 and the “Plant response rating, Barnyardgrass” value [12, 16] was 0. For the same compound, the “Barnyardgrass plant response rating” value [12] was 0.
For `Cc1cccc(-c2ncc(C(=O)C3=C(O)CCCC3=O)c(=O)n2-c2cc(F)ccc2C)c1` [Compound 178], the “Plant response rating, Pigweed” value [1, 13] was 60, the “Pigweed plant response rating” value ([1]; Postemergence, 500 g ai/ha) was 80 and the “Plant response rating, Pigweed” value [1, 14] was 0. The “Plant response rating, Pigweed” value [1, 15] was 40, the “Plant response rating, Velvetleaf” value [2, 13] was 90 and the “Velvetleaf plant response rating” value ([2]; Postemergence, 500 g ai/ha) was 100. For the same compound, the “Plant response rating, Velvetleaf” value [2, 14] was 0, the “Plant response rating, Velvetleaf” value [2, 15] was 60 and the “Plant response rating, Morningglory” value [3, 13] was 50. For the same compound, the “Morningglory plant response rating” value ([3]; Postemergence, 500 g ai/ha) was 100, the “Plant response rating, Morningglory” value [3, 14] was 0 and the “Plant response rating, Morningglory” value [3, 15] was 40. For the same compound, the “Plant response rating, Wheat” value [4, 13] was 0, the “Wheat plant response rating” value ([4]; Postemergence, 500 g ai/ha) was 30 and the “Plant response rating, Wheat” value [4, 14] was 0. For the same compound, the “Plant response rating, Wheat” value [4, 15] was 0, the “Plant response rating, Crabgrass, Large” value [5, 13] was 50 and the “Crabgrass, Large plant response rating” value ([5]; Postemergence, 500 g ai/ha) was 80. The “Plant response rating, Crabgrass, Large” value [5, 14] was 10, the “Plant response rating, Crabgrass, Large” value [5, 15] was 70 and the “Plant response rating, Corn” value [6, 13] was 0. The “Corn plant response rating” value ([6]; Postemergence, 500 g ai/ha) was 70, the “Plant response rating, Corn” value [6, 14] was 0 and the “Plant response rating, Corn” value [6, 15] was 0. The “Plant response rating, Foxtail, Giant” value [7, 13] was 50, the “Foxtail, Giant plant response rating” value ([7]; Postemergence, 500 g ai/ha) was 80 and the “Plant response rating, Foxtail, Giant” value [7, 14] was 10. The “Plant response rating, Foxtail, Giant” value [7, 15] was 50, the “Plant response rating, Barnyardgrass” value [8, 13] was 80 and the “Barnyardgrass plant response rating” value ([8]; Postemergence, 500 g ai/ha) was 90. The “Plant response rating, Barnyardgrass” value [8, 14] was 0, the “Plant response rating, Barnyardgrass” value [8, 15] was 50 and the “Plant response rating, Flood, Rice” value [9, 17] was 70. For the same compound, the “Plant response rating, Rice” value [9, 18] was 20, the “Plant response rating, Rice” value [9, 16] was 70 and the “Rice plant response rating” value [9] was 0. For the same compound, the “Plant response rating, Flood, Ducksalad” value [10, 17] was 100, the “Plant response rating, Ducksalad” value [10, 18] was 75 and the “Plant response rating, Ducksalad” value [10, 16] was 100. The “Ducksalad plant response rating” value [10] was 75, the “Plant response rating, Flood, Sedge, Umbrella” value [11, 17] was 95 and the “Plant response rating, Sedge, Umbrella” value [11, 18] was 85. The “Plant response rating, Sedge, Umbrella” value [11, 16] was 95, the “Sedge, Umbrella plant response rating” value [11] was 55 and the “Plant response rating, Flood, Barnyardgrass” value [12, 17] was 80. For the same compound, the “Plant response rating, Barnyardgrass” value [12, 18] was 20, the “Plant response rating, Barnyardgrass” value [12, 16] was 60 and the “Barnyardgrass plant response rating” value [12] was 20.
